Common to all, as to assay: inhibition of tumour cell growth, NCI panel, 48 h
The subject of assay [1] is HOP-92 NSCLC.
The subject of assay [2] is COLO 205 colon.
For assay [3], the system named is SN12C renal.
Assay [4] deals with HOP-62 NSCLC.
In assay [5] the test system is HCT-15 colon.
Assay [6] has as its system MOLT-4 leukemia.
Assay [7] has as its system OVCAR-4 ovarian.
The test system of assay [8] is HL-60(TB) leukemia.
Assay [9] has as its system OVCAR-8 ovarian.
In assay [10] the test system is A498 renal.

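Five compound concentrations were applied to cells in 96-well plates for 48 hours; endpoints were derived by simple linear interpolation of the resulting dose-response curve. TGI denotes the concentration required for complete inhibition of growth.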

With `O=C(CNc1ccccn1)Nn1cnc2ccc(S(=O)(=O)Nc3ccccn3)cc2c1=O`, the TGI in assay [1], in assay [2], in assay [3], in [4], in [5] and in assay [6] was above 100 µM in each case. Besides, the TGI in assay [7], in assay [8] and in assay [9] was above 100 µM each time.
In the case of `O=c1[nH]/c(=C/c2ccc3c(c2)OCO3)c(=O)[nH]/c1=C/c1ccc2c(c1)OCO2`, the TGI in [1], in assay [2], in assay [10], in assay [3], in assay [4] and in [5] was above 10 µM each time. Also, the TGI in assay [6], in assay [7] and in [9] was above 10 µM throughout.
Regarding `O=c1[nH]nc(Cc2ccccc2)n1/N=C/c1cccs1`, the TGI in [2] is above 100 µM; in assay [10], 63 µM; in assay [3] it was above 100 µM; in [4] it was above 100 µM; in [5] it was above 100 µM; in assay [6] it was above 100 µM. The TGI in assay [7] and in assay [9] was above 100 µM throughout.
As for `Nc1nc(NNc2cccc(F)c2)cc(=O)[nH]1`, the TGI in [2] was 54.3 µM; in assay [10], above 100 µM; in assay [3], above 100 µM; in assay [4], 58.5 µM; in [5], above 100 µM; in assay [6], above 100 µM. Further, the TGI is above 100 µM in [7], 59.3 µM in assay [8] and above 100 µM in assay [9].
Turning to `CCS(=O)C(=O)N(O)c1ccc(Cl)cc1` (stereo not given), the TGI in assay [1] is above 100 µM; in assay [2] it was above 100 µM; in assay [10], above 100 µM; in assay [3], 43 µM; in assay [4], above 100 µM; in [5], 68.5 µM. Also, the TGI in assay [6] is 25 µM; in assay [7] it was above 100 µM.
With `CSc1ncnc2c1cnn2Cc1cnnn1COCC(O)CO` (stereo not given), the TGI in assay [2], in assay [10], in [3], in assay [4], in assay [5] and in assay [6] was above 100 µM each time. Further, the TGI in assay [7], in assay [8] and in assay [9] was above 100 µM each time.
Consider `O=C1N=C2SC=C(NC(=S)Nc3ccccc3)N2NC12c1ccccc1-c1ccccc12`, for which the TGI in assay [1], in assay [2], in [3], in [4], in assay [5] and in assay [6] was above 10 µM each time. In addition, the TGI in [7], in assay [8] and in assay [9] was above 10 µM in each case.
On to `CC1=CC2C(C=C1)S(=O)(=O)N1CC21c1ccccc1` (stereo not given), for which the TGI in assay [1], in assay [2], in [10], in [3], in assay [4] and in [5] was above 100 µM throughout. Also, the TGI in [8] and in [9] was above 100 µM each time.
As for `C=CCCC1(O)C(O)C(CO)O[C@H](O[C@@]2(CO)OC(CO)C(O)C2O)C1O` (stereo not given in full), the TGI in assay [1], in assay [2], in assay [3], in assay [4], in [5] and in assay [6] was above 100 µM throughout. In addition, the TGI in assay [7], in assay [8] and in assay [9] was above 100 µM in each case.
As to `CCOC1=C2N=C(C(CC)c3ccccc3F)N=C2C(=O)c2ccccc21` (stereo not given), the TGI in assay [1], in assay [2], in assay [3], in assay [4], in assay [5] and in [6] was above 100 µM throughout. The TGI in assay [7], in [8] and in [9] was above 100 µM in each case.
`O=Cc1c[nH]c2c(=O)[nH]cnc12`: the TGI in assay [1], in assay [2], in assay [3], in assay [4], in assay [5] and in assay [6] was above 100 µM throughout. The TGI in assay [8] and in [9] was above 100 µM each time.
On to `COCC(C)(C)N=CN1Cc2cc3ccccc3nc2C1`, for which the TGI in [1], in assay [2], in assay [3], in assay [4], in assay [5] and in assay [6] was above 100 µM throughout. Besides, the TGI in [7], in assay [8] and in assay [9] was above 100 µM throughout.
For the compound `COc1ccc2[nH]c3c(c2c1)[C@H](c1ccccc1)C[C@@H]1C(=O)N(c2ccccc2)C(=O)[C@H]31`, the TGI in [1] was 76.3 µM; in [2], above 100 µM; in assay [10], 49.6 µM; in [3] it was 33.3 µM; in [4], 48.8 µM; in [5] it was above 100 µM. The TGI in assay [6] stood at 31.5 µM; in [7], 31 µM; in assay [9], 17.6 µM.
For the compound `O=C1CN(c2ccccc2)Cc2nc(Cl)ccc2N1`, the TGI in assay [1], in assay [2], in [3], in assay [4], in [5] and in assay [6] was above 100 µM in each case. The TGI in assay [7], in [8] and in [9] was above 100 µM in each case.
With `CCCCOCCOCCOC1=CC(=O)c2c(O)ccc(O)c2C1=O`, the TGI in [1] came to 6.28 µM; in assay [2], 2.74 µM; in [3] it was 3.22 µM; in assay [4], 3.22 µM; in [6], 8.22 µM; in assay [7], 3.4 µM. In addition, the TGI in assay [8] was 6 µM.
Regarding `CC1(C)OC(=O)C(C)(C)C(=O)O1`, the TGI in assay [2], in assay [3], in assay [4], in assay [5], in [6] and in assay [7] was above 100 µM each time. In assay [9], this compound registered a TGI above 100 µM.
Take `Cc1ccc(C(=O)CC2(O)C(=O)Nc3c(C)cc(Cl)cc32)cc1` (stereo not given): the TGI in [1], in [2], in [3], in assay [4], in assay [5] and in [6] was above 100 µM in each case. The TGI in assay [7], in assay [8] and in assay [9] was above 100 µM each time.
Regarding `CCOC1OC(CO)C(O)CC1n1ccc(=O)[nH]c1=O` (stereo not given), the TGI in assay [1], in [2], in assay [10], in assay [3], in assay [5] and in assay [7] was above 100 µM each time. The compound also yielded a TGI in assay [9] above 100 µM.
Turning to `CC1=C(c2nc3ccccc3s2)C(=O)OC1(C)C`, the TGI in [2], in [3], in [4], in [5], in [6] and in assay [7] was above 100 µM each time. In addition, in assay [9], the TGI was above 100 µM.
`COc1ccc(C2=Nc3c(nc(OC)[nH]c3=O)NC(c3ccccc3)C2)cc1` (stereo not given): the TGI is above 100 µM in assay [1]; 50.3 µM in assay [2]; above 100 µM in assay [10]; 62.6 µM in assay [3]; above 100 µM in assay [4]; above 100 µM in [6]. The TGI came out at 56.9 µM in assay [8] and 54.4 µM in assay [9].
`COc1cc2ccc3c4ccccc4cnc3c2cc1OC`: the TGI in assay [1], in [2], in [3], in assay [4], in assay [5] and in [6] was above 100 µM each time. The TGI in assay [7], in [8] and in assay [9] was above 100 µM in each case.
Take `COc1ccc(Nc2nc3ccccc3n3cccc23)cc1OC`: the TGI in assay [1] is above 100 µM; in assay [2], 27.4 µM; in assay [10], 55.8 µM; in assay [4], 32.7 µM; in assay [5] it was 31.6 µM; in [6], 43.3 µM. Further, the TGI in assay [8] was determined as 9.51 µM; in [9] it was 29.5 µM.
For `CCOc1ccccc1N=Nc1ccc2oc(=O)c(C(C)=O)cc2c1`, the TGI in assay [2], in [10], in [3], in [4], in assay [5] and in assay [6] was above 100 µM in each case. Moreover, the TGI in assay [7], in assay [8] and in assay [9] was above 100 µM in each case.
`COc1ccc(/C=c2\c(=O)[nH]c3nc4ccccc4c(=O)n23)cc1`: the TGI in assay [1], in assay [2], in assay [3], in assay [4], in assay [5] and in [6] was above 100 µM throughout. The TGI in [7], in assay [8] and in assay [9] was above 100 µM throughout.
With `CCOC(=O)N/N=C(/N)c1cccc(Br)c1`, the TGI in [2], in [3], in [4], in assay [5], in assay [6] and in [7] was above 100 µM throughout. Also, the TGI in assay [8] and in [9] was above 100 µM each time.
Consider `CO/C(N)=C(\C#N)N=Cc1ccc2ccccc2c1`, for which the TGI was above 100 µM in assay [1]; 51.8 µM in assay [2]; above 100 µM in assay [10]; above 100 µM in assay [3]; above 100 µM in assay [4]; above 100 µM in assay [6]. The TGI in [8] is 15.6 µM; in assay [9] it was above 100 µM.
In the case of `Clc1ccc(Nc2nnc(CNc3ccc(-c4nnc(Nc5ccc(Cl)cc5)s4)cc3)s2)cc1`, the TGI was above 100 µM in [1]; 45.3 µM in assay [2]; above 100 µM in assay [10]; above 100 µM in [3]; above 100 µM in assay [4]; above 100 µM in [5]. In addition, the TGI in assay [6] and in [7] was above 100 µM in each case.
For `N#CC(NNC(=O)Cc1ccccc1)c1cccc(O)c1` (stereo not given), the TGI in assay [1], in [2], in assay [3], in assay [4], in assay [5] and in assay [6] was above 100 µM in each case. The TGI in assay [7], in assay [8] and in [9] was above 100 µM each time.
Turning to `COC(=O)C1CC2C=CC=CC(=O)C2(C)C1` (stereo not given), the TGI in assay [2], in assay [10], in [3], in assay [4], in [5] and in assay [6] was above 100 µM each time. Further, the TGI in assay [7] is above 100 µM; in [8], 55.1 µM; in assay [9] it was above 100 µM.
Regarding `CCc1n[nH]c(=O)n1CCCCCCCCn1c(CC)n[nH]c1=O`, the TGI in [1], in [2], in assay [3], in [4], in assay [5] and in assay [6] was above 100 µM each time. Also, the TGI in [7] and in assay [9] was above 100 µM in each case.
As to `C=C1CC(C)(COc2ccc3c(C)c(Cl)c(=O)oc3c2)OC1=O` (stereo not given), the TGI came out at 4.41 µM in assay [1]; 2.43 µM in [2]; 18.9 µM in assay [3]; 34.5 µM in [4]; 5.86 µM in assay [5]; 3.24 µM in assay [6]. For the same compound, the values for the TGI in assay [7], in [8] and in assay [9] were 10.4 µM, 1.21 µM and 17.3 µM, respectively.
On to `COc1ccc(-n2c(CCC(=O)O)nc3c2C(=O)c2ccccc2C3=O)cc1`, for which the TGI in [2], in assay [10], in assay [3], in [4], in [5] and in assay [6] was above 100 µM throughout. Also, the TGI in [7], in [8] and in assay [9] was above 100 µM in each case.

For the origin of these results see PubChem BioAssay (NCI).
